Experimental data taken from US20140072662A1, “Andrographis Paniculata Compositions and Methods for Treatment of Addictions” (Omeros Corporation, priority 2012, published 2014).

What was measured:
msP rats [1] = test: Two-bottle choice paradigm, voluntary 10% alcohol intake in msP rats; format: in vivo, rat; conditions: 3 days
Text: Male genetically selected alcohol-preferring rats were used. They were bred at the Department of Experimental Medicine and Public Health of the University of Camerino (Marche, Italy) for 64 generations from Sardinian alcohol-preferring (sP) rats of the 13th generation, provided by the Department of Neurosciences of the University of Cagliari (Colombo et al, 2006). They are referred to as Marchigian sP (msP) rats (Ciccocioppo et al, 2006). At the time of the experiments their body weight ranged between 300 and 350 g. They were kept in single cages in a room with a reverse 12:12 h light/dark cycle (lights off at 9:30 a.m.), temperature of 20-22° C. and humidity of 45-55%. […]
A widely used method for testing fluid preference is the two-bottle choice paradigm, in which water and 10% (v/v) alcohol solution were offered in graduated drinking tubes equipped with metallic drinking spouts and their consumption was measured by reading the volume consumed from the graduated tubes. Food intake was measured by weighing the food containers and taking into account spillage. Alcohol, water and food intakes are expressed as g/kg to reduce the influence of differences in body weight. […]
Alcohol, water and food intake were monitored daily at 0.5, 2, 8 and 24 hours. For all the experiments performed, intakes were recorded for several additional days after the end of the drug treatment period. […]

msP rats [2] = test: Central PPAR antagonist GW9662 on andrographolide-induced reduction of alcohol intake in msP rats; format: in vivo, rat; conditions: andrographolide 10 mg/kg, 6 consecutive days; 2, 8 and 24 hours
Method: GW9662, purchased from Tocris (Bristol, UK), was dissolved in 10% DMSO and 3% Tween 80 and the final volume (5 μg/μl) was adjusted adding distilled water. GW9662 was injected ICV in a volume of 1 μl per rat by means of a stainless-steel injector 2.5 mm longer than the guide cannula, so that its tip protruded into the ventricle.
A 22-gauge guide cannula for intracerebroventricular (ICV) drug injections was stereotaxically implanted into the lateral cerebroventricle with the following coordinates: anteroposterior (AP)=1.0; lateral (L)=1.8; ventral (V)=2.0 with reference to bregma.
A widely used method for testing fluid preference is the two-bottle choice paradigm, in which water and 10% (v/v) alcohol solution were offered in graduated drinking tubes equipped with metallic drinking spouts and their consumption was measured by reading the volume consumed from the graduated tubes. Food intake was measured by weighing the food containers and taking into account spillage. Alcohol, water and food intakes are expressed as g/kg to reduce the influence of differences in body weight.
To examine whether the effect of andrographolide on alcohol intake is mediated by brain PPAR receptors, another group of msP rats (N=31) was treated ICV with 5 μg/rat of the PPAR antagonist GW9662 and then injected with andrographolide (10 mg/kg) or its vehicle. In a between-subject design each group of animals (N=7-8/group) received a different drug dose for 6 consecutive days. GW9662 or its vehicle were administered twice daily at 12 hours and 30 minutes before the beginning of the dark period of the light-dark cycle. Andrographolide was given immediately after GW9662 administrations.
Alcohol, water, and food intake was recorded at 0.5, 2, 8 and 24 hours from the moment that alcohol was made available.

[3] = in vivo, cited from earlier work
[4] = cited from earlier work
[5] = clinical study; cited from earlier work
[6] = system: rat model of cerebral ischemia; conditions: in vivo; cited from earlier work
[7] = system: LPS-stimulated macrophages; conditions: cited from earlier work
msP rats [8] = test: Yohimbine-induced reinstatement of alcohol seeking in msP rats; format: in vivo, rat; conditions: yohimbine 1.25 mg/kg i.p.; p<0.001
Method: The study was conducted using standard operant chambers (Med Associate, St Albans, Vt.) located in sound-attenuating, ventilated environmental cubicles. Each chamber was equipped with a drinking reservoir (volume capacity: 0.30 ml) positioned 4 cm above the grid floor in the centre of the front panel of the chamber, and two retractable levers located 3 cm to the right or to the left of the drinking receptacle. Auditory and visual stimuli were presented via a speaker and a light located on the front panel. A microcomputer controlled the delivery of fluids, presentation of auditory and visual stimuli, and recording of the behavioral data.
During the first 6 days of training, rats were allowed to lever-press for a 10% (v/v) alcohol solution containing 0.2% (w/v) saccharin solution, on a FR-1 schedule. In the following days, msP rats were trained to self-administer 10% alcohol solution (v/v) on a FR-1, time out 5 second (TO 5 s.) schedule of reinforcement. The TO period was signalled by illumination of a white house light above the right lever for 5 s. 10% (v/v) alcohol self-administration continued until stable baseline of responding was achieved.
After the last alcohol self-administration session, animals were subjected to 30-min extinction sessions. […]

Wistar rats = test: Yohimbine-induced reinstatement of nicotine seeking in Wistar rats; format: in vivo, rat; conditions: yohimbine 1.25 mg/kg IP; p<0.001
Method: Animals are anesthetized by intramuscular injection of 100-150 μl of a solution containing tiletamine cloridrate (58.17 mg/ml) and zolazepam cloridrate (57.5 mg/ml). For IV surgery, incisions are made to expose the right jugular vein. A catheter made from micro-renathane tubing (I.D.=0.020 inches, O.D.=0.037 inches) is subcutaneously positioned between the vein and the back. After insertion into the vein, the proximal end of the catheter is anchored to the muscles underlying the vein with surgical silk. The distal end of the catheter is attached to a stainless-steel cannula bent at a 90° angle. The cannula is inserted in a support made by dental cement on the back of the animals covered with a plastic cap. […] Body weights are monitored every day and catheter patency is confirmed approximately every 3 days with an injection of 0.2-0.3 ml of thiopental sodium (250 mg/ml) solution. […]
The day after the last extinction session, in a within subject counterbalanced design animals are given Andrographis Paniculata extract OS at the doses of 0, 150; 450 mg/kg, given 1 hour prior to administration of yohimbine (1.25 mg/kg) or its vehicle. 30 minutes following the administration of yohimbine, animals (N=15) are placed in the self-administration apparatus, and lever pressesis recorded for 2 hours. […]

SMILES | voluntary alcohol intake (msP rats [1]; andrographolide 5 mg/kg i.p. twice daily) | voluntary alcohol intake (msP rats [1]; andrographolide 10 mg/kg i.p. twice daily (12 h and 30 min before dark period)) | alcohol drinking (msP rats [2]) | oral bioavailability ([3]; po) | binding to plasma proteins [3] | aqueous solubility [4] | ability to cross the brain-blood barrier [5] | neuroprotective effects [6] | production of TNF-α, IL-1β and IL-12 [7] | reinstatement of operant response for alcohol vs extinction (msP rats [8]) | reinstatement of responding for nicotine vs extinction (Wistar rats)
C=C1CC[C@@H]2[C@](C)(CO)[C@H](O)CC[C@@]2(C)[C@@H]1C/C=C1/C(=O)OC[C@H]1O [andrographolide] | a statistical difference from controls was observed the last day of treatment for all the time points | the effect appeared from the second day of treatment (Day 3) and remained significant throughout the treatment period | reduced alcohol consumption starting from the second day and for the entire duration of treatment | low | high | low | cross the brain-blood barrier | clear neuroprotective effects | inhibits | – | –
COC(=O)[C@@H]1[C@H]2C[C@H]3c4[nH]c5ccccc5c4CCN3C[C@@H]2CC[C@@H]1O [yohimbine] | – | – | – | – | – | – | – | – | – | significantly reinstated the operant response for alcohol | significant reinstatement of responding
